In patent US7354711B2, “Methods for inhibiting immunostimulatory DNA associated responses” (University of Iowa Research Foundation, priority 1997, dated 2008):

System: WEHI 231 cells
Assay: Inhibition of CpG-ODN 1760 protection against α-sIgM-induced inhibition of [3H] thymidine uptake
Format: cell-based, mouse
Settings: for Fold: activity expressed as a fraction of activity of chloroquine / Activity: -log10 of the concentration (M) required for half maximal inhibition of CpG-ODN effect on [3H] thymidine uptake in the presence of α-sIgM: Table 2, 4-aminoquinolines; for Activity: -log10 of the concentration (M) required for half maximal inhibition of CpG-ODN effect on [3H] thymidine uptake in the presence of α-sIgM / Activity,-log10 (concentration (M) for half maximal inhibition of CpG-ODN effect on [3H] thymidine uptake in the presence of α-sIgM): WEHI 231 cells; for vs. Chloroquine, fold / Activity,-log10 (concentration (M) for half maximal inhibition of CpG-ODN effect on [3H] thymidine uptake in the presence of α-sIgM): Table 3, 9-aminoacridines
Method: The assay of [^3H] Thymidine incorporation was carried out as follows. WEHI 231 cells (200 μL at 2×10^5/milliliter, in duplicate or triplicate) were incubated in a 96-well plate (Costar, Cambridge Mass.). Additions were made as indicated. After incubating for 16 hours, 0.5 μCi [methyl-^3H] thymidine (2 Ci/millimole, DuPont NEN, Boston Mass.) was added to each well, and the cells were incubated for another 4 hours. Cellular DNA was then captured onto glass fiber filters (Whatman 934AH) using a cell harvester (Brandel, Gaithersberg Md.). The filters were dried, placed into plastic scintillation vials with 10 milliliters of scintillation cocktail (EconoSafe, Research Products International, Mount Prospect Ill.), and counted in a liquid scintillation counter (Beckman LS-3133 T). The ^3H recovered on the filter was expressed as a fraction of the ^3H added.
Referring to experiments summarized in FIG. 1, WEHI 231 cells (ca. 2×10^5 per milliliter) were incubated for 16 hours at 37° C. with 10 μgrams/milliliter α-sIgM, 6 μgrams/milliliter ODN 1760, and the indicated concentration of the compound. After 16 hours, 0.5 μCi [^3H] thymidine was added. After 4 more hours incubation, the cellular DNA was harvested onto glass fiber filters. The dry filters were counted in a liquid scintillation counter.
Each experimental point was the mean of at least duplicate measurements.
Referring to the experiments summarized in FIG. 3, 10 μgrams/milliliter α-sIgM and the indicated concentrations of ODN 1760 and quinacrine were added simultaneously to WEHI 231 cells. Thymidine incorporation was estimated at 16 hours as described for Example 1.
Referring to the experiments summarized in FIG. 4, WEHI 231 cells were incubated with α-sIgM and ODN 1760. At times thereafter 0.1 μM quinacrine was added (data shown in the left three bars). Cells were incubated with 10 μgrams/milliliter (α-sIgM and ODN 1760 (6 μgrams/milliliter, phosphorothioate or a phosphodiester ODN with the same sequence as 1760 (PD ODN) (30 μM at time 0 hours and 8 hours; data represented in right six bars in FIG. 4). [^3H] thymidine incorporation was estimated at 16 hours.
The symbol — indicates no change. Me and Et indicate —CH3 and —CH2CH3 respectively. Aromatic substituents are in the para position except as indicated. The activity is —log10 of the concentration (M) required for half maximal inhibition of CpG-ODN effect on [^3H] thymidine uptake in the presence of α-sIgM.

SMILES | Fold: activity expressed as a fraction of activity of chloroquine [fold] | Activity: -log10 of the concentration (M) required for half maximal inhibition of CpG-ODN effect on [3H] thymidine uptake in the presence of α-sIgM | further results
C=C[C@H]1C[N@@]2CC[C@H]1C[C@@H]2[C@@H](O)c1ccnc2ccc(OC)cc12 [Quinidine, quinidine, reference compound] |  |  | Effect on CpG-ODN action (FIG. 1) (at concentrations less than 10 μM): little effect
CCN(CC)Cc1cc(Nc2ccnc3cc(Cl)ccc23)ccc1O [amodiaquine, reference compound] |  |  | Inhibition of the CpG-ODN effect (FIG. 1) (at nanomolar concentrations, 10 μg/mL α-sIgM, 6 μg/mL ODN 1760): completely inhibited
CCN(CC)CCCC(C)Nc1c(C)cnc2cc(Cl)ccc12 (stereo not drawn) [compound 1] | 0.55 | 6.70 | 
CCN(CC)CCCC(C)Nc1ccnc2cc(C)ccc12 (stereo not drawn) [compound 3] | 0.16 | 6.16 | 
CCN(CC)CCCC(C)Nc1ccnc2cc(Br)ccc12 (stereo not drawn) [compound 4] | 0.72 | 6.82 | 
CCN(CC)CCC(CNc1ccnc2cc(Cl)ccc12)c1ccccc1 (stereo not drawn) [compound 7] | 1.38 | 7.10 | 
CC[N+](C)(CC)CCCC(C)Nc1ccnc2cc(Cl)ccc12 (stereo not drawn) [compound 8] | 0.02 | 5.18 | 
CCN(CC)CCCC(C)Nc1ccnc2cccc(Cl)c12 (stereo not drawn) [compound 9] | 0.76 | 6.84 | 
CN(C)CCCCNc1ccnc2cc(Cl)ccc12 [compound 10] | 0.72 | 6.82 | 
CCN(CC)CCCC(C)Nc1ccnc2cc(Cl)ccc12 (stereo not drawn) [compound 11] |  | 6.56 | 
CCN(CC)CCCC(C)Nc1c(-c2ccccc2)cnc2cc(Cl)ccc12 (stereo not drawn) [compound 12] | 0.69 | 6.80 | 
CCN(CC)CCCC(C)Nc1ccnc2cc(F)ccc12 (stereo not drawn) [compound 13] | 0.26 | 6.38 | 
CCN(CC)CCCC(C)Nc1ccnc2cc(OC)ccc12 (stereo not drawn) [compound 14] | 0.17 | 6.20 | 
CCN(CC)CCCC(C)Nc1ccnc2cc(Cl)ccc12 (stereo not drawn) [compound 15] |  | 6.96 | 
CCN(CC)CCCC(Nc1c2ccc(Cl)cc2nc2ccc(OC)cc12)c1ccc(F)cc1 (stereo not drawn) [compound 23] |  |  | vs. Chloroquine, fold: 2.57 fold; Activity,-log10 (concentration (M) for half maximal inhibition of CpG-ODN effect on [3H] thymidine uptake in the presence of α-sIgM): 7.37
CCN(CC)CCCC(Nc1c2ccc(Cl)cc2nc2ccc(OC)cc12)c1cccnc1 (stereo not drawn) [compound 24] |  |  | vs. Chloroquine, fold: 3.63 fold; Activity,-log10 (concentration (M) for half maximal inhibition of CpG-ODN effect on [3H] thymidine uptake in the presence of α-sIgM): 7.52
CCN(CC)CCCC(Nc1c2ccc(Cl)cc2nc2ccc(OC)cc12)c1ccccc1 (stereo not drawn) [compound 25] |  |  | vs. Chloroquine, fold: 5.75 fold; Activity,-log10 (concentration (M) for half maximal inhibition of CpG-ODN effect on [3H] thymidine uptake in the presence of α-sIgM): 7.72
CCN(CC)CCCC(C)Nc1c2ccc(Cl)cc2nc2cc(OC)c(OC)cc12 (stereo not drawn) [compound 26] |  |  | vs. Chloroquine, fold: 10.72 fold; Activity,-log10 (concentration (M) for half maximal inhibition of CpG-ODN effect on [3H] thymidine uptake in the presence of α-sIgM): 7.99

SMILES | Fold: activity expressed as a fraction of activity of chloroquine [fold] | Activity: -log10 of the concentration (M) required for half maximal inhibition of CpG-ODN effect on [3H] thymidine uptake in the presence of α-sIgM | further results
CCN(CC)CCCC(Nc1c2ccc(Cl)cc2nc2ccc(OC)cc12)c1cccs1 (stereo not drawn) [compound 27] |  |  | vs. Chloroquine, fold: 1.82 fold; Activity,-log10 (concentration (M) for half maximal inhibition of CpG-ODN effect on [3H] thymidine uptake in the presence of α-sIgM): 7.22
CCN(CC)CCCC(Nc1c2ccc(Cl)cc2nc2ccc(OC)cc12)c1ccc(Cl)cc1 (stereo not drawn) [compound 28] |  |  | vs. Chloroquine, fold: 1.82 fold; Activity,-log10 (concentration (M) for half maximal inhibition of CpG-ODN effect on [3H] thymidine uptake in the presence of α-sIgM): 7.22
CCN(CC)CCCC(Nc1c2ccc(Cl)cc2nc2ccc(OC)cc12)c1cccc2ccccc12 (stereo not drawn) [compound 29] |  |  | vs. Chloroquine, fold: 1.91 fold; Activity,-log10 (concentration (M) for half maximal inhibition of CpG-ODN effect on [3H] thymidine uptake in the presence of α-sIgM): 7.24
CCN(CC)CCCC(Nc1c2ccc(Cl)cc2nc2ccc(OC)cc12)c1ccc(OC)cc1 (stereo not drawn) [compound 30] |  |  | vs. Chloroquine, fold: 2.09 fold; Activity,-log10 (concentration (M) for half maximal inhibition of CpG-ODN effect on [3H] thymidine uptake in the presence of α-sIgM): 7.28
CCN(CC)CCCC(C)Nc1c(C)cnc2cc(Cl)c(C)cc12 (stereo not drawn) [compound 32] | 2.57 | 7.37 | 
CCN(CC)CCCC(CNc1ccnc2cc(Cl)ccc12)c1ccc(Cl)cc1 (stereo not drawn) [compound 33] | 2.95 | 7.43 | 
CCN(CC)CC(CNc1ccnc2cc(Cl)ccc12)c1ccc(OC)cc1 (stereo not drawn) [compound 34] | 5.04 | 7.66 | 
CCN(CC)CCCCNc1c(C)cnc2cc(Cl)ccc12 [compound 35] | 0.81 | 6.87 | 
CCN(CC)CCCC(C)Nc1ccnc2cc(C)ccc12 (stereo not drawn) [compound 37] | 0.03 | 5.50 | 
CCN(CC)CCCC(C)Nc1c(C)c(C)nc2ccccc12 (stereo not drawn) [compound 39] | 0.04 | 5.58 | 
CCN(CC)CCCC(C)Nc1c(C)cnc2cccc(C)c12 (stereo not drawn) [compound 40] | 0.23 | 6.32 | 
CCN(CC)CCCC(C)Nc1c(C)cnc2cc(OC)ccc12 (stereo not drawn) [compound 41] | 0.28 | 6.64 | 
CCN(CC)CCCC(C)Nc1ccnc2ccc(Oc3ccccc3)cc12 (stereo not drawn) [compound 42] | 1.48 | 7.13 | 
CCN(CC)CCCC(C)Nc1ccnc2cc(Cl)c(SCc3ccccc3)cc12 (stereo not drawn) [compound 43] | 4.57 | 7.62 | 
CCN(CC)CCCC(C)Nc1cc(-c2ccccc2)nc2cc(OC)ccc12 (stereo not drawn) [compound 44] | 3.63 | 7.52 | 
CCN(CC)CCCC(C)Nc1c(C)cnc2cc(Cl)c(C)cc12 (stereo not drawn) [compound 46] | 0.21 | 6.28 | 
OC1CCCC1Nc1ccnc2cc(Cl)ccc12 (stereo not drawn) [compound 47] | 0.02 | 5.25 | 
